Values of other authors as cited in patent US20120184751A1, “POLYMORPHIC FORM OF OLMESARTAN MEDOXOMIL” (RANBAXY LABORATORIES LIMITED, priority 2009, published 2012).

Details: 75% relative humidity at 40° C. for one month

CCCc1nc(C(C)(C)O)c(C(=O)OCc2oc(=O)oc2C)n1Cc1ccc(-c2ccccc2-c2nnn[nH]2)cc1 [amorphous olmesartan medoxomil, 2,3-dihydroxy-2-butenyl-4-(1-hydroxy-1-methylethyl)-2-propyl-1-[p-(o-1H-tetrazol-5-ylphenyl)benzyl]imidazole-5-carboxylate, cyclic 2,3-carbonate]
solid-state stability / form conversion on storage: converts into hydrated olmesartan medoxomil having crystalline appearance
